Data set [1] deals with diabetic Wistar rats. As to the kind of experiment: Organ weight after long-term oral administration in diabetic Wistar rats. It is filed as in vivo. On the set-up: unit not given here. As to conditions: mean±SD (n=6). How it is done:
The results are presented as mean±SD (n=6), and the significance of the values was analyzed by one-way ANOVA followed by Tukey's test (p<0.05). *p<0.05, **p<0.01, ***p<0.001, ****p<0.0001.

The subject of data set [2] is diabetic Wistar rats. As to the kind of experiment: Organ histology (islets of the pancreas) in diabetic Wistar rats. It is filed as in vivo. As to conditions: long-term oral administration.
A further data set relates to rat liver homogenate. As to the kind of experiment: In vitro glucose assay using rat liver homogenate. It is filed as biochemical. Conditions: 100 μM glucose, 25 μM or 50 μM folates, 37° C., 1 hour. How it is done: The glucose concentration was determined after incubation at 37° C. for 1 hour.
(A) Folates at a concentration of 25 μM. (B) Folates at 50 μM. Control represents glucose concentration without folate treatment which is considered to be 100%. The results are presented as mean±SD (n=3), and the significance of the values was analyzed by one-way ANOVA followed by Tukey's test (p<0.05). *p<0.05, **p<0.01, […], ***p<0.0001.

For data set [3], the system named is diabetic Wistar rats. Description: Oral glucose tolerance test (OGTT) in diabetic Wistar rats. Format: in vivo. Conditions: for whole blood glucose values from baseline: 0-120 min. How it is done: Fasting blood sugar concentration was estimated.
Oral glucose tolerance test (OGTT). The test was performed by oral administration of glucose (2 g/kg body wt). Graph showing blood glucose concentration before (0 min) and 30, 60, 90, and 120 min after administration. Data are shown as the mean±SEM (n=6).

The conditions of data set [4]: 400 μg folate vs equimolar amounts, after 8 weeks of treatment; cited from earlier work.

Marks after values point to notes of the source that are not given here.

Results on four compounds are retold here after patent publication US20240398808A1, “DIHYDROFOLATE FOR HYPOGLYCEMIC ACTIVITY” (COUNCIL OF SCIENTIFIC AND INDUSTRIAL RESEARCH an india …, priority 2023, published 2024).

For `CN1c2c(nc(N)[nH]c2=O)NCC1CNc1ccc(C(=O)N[C@@H](CCC(=O)O)C(=O)O)cc1` (some centres unmarked) [5-methyltetrahydrofolate], in the data set on diabetic Wistar rats [1], the “Organ weight, Adipose” value was 2.77 ± 2.11**; the “Organ weight, Brain” value was found to be 1.46 ± 0.18; the “Organ weight, Cecum matter” value stood at 4.33 ± 0.95; the “Organ weight, Heart” value turned out to be 0.82 ± 0.23. In the data set on diabetic Wistar rats [1], the “Organ weight, Kidney” value stood at 2.12 ± 0.2; the “Organ weight, Liver” value came out at 8.49 ± 2.52; the “Organ weight, Lungs” value is 1.93 ± 0.62; the “Organ weight, Spleen” value came out at 0.92 ± 0.35. For the same compound, in the data set with diabetic Wistar rats [1], the “Organ weight, Testes” value was found to be 2.31 ± 0.79. For the same compound, in the data set on diabetic Wistar rats [2], the “histology of islets of the pancreas / beta cells” value is “Moderate hypertrophy of islets of the pancreas and moderate hyperplasia of beta cells”. In addition, the “glucose concentration upon treatment” value in the data set with rat liver homogenate was “decreased”. For the same compound, in the data set with diabetic Wistar rats [3] (OGTT), the “time at which decline in whole blood glucose leveled off” value is recorded as “about 120 minutes” and the “whole blood glucose values from baseline” value is given as “gradual decline”.

On to `CN1c2c(nc(N)[nH]c2=O)NC[C@H]1CNc1ccc(C(=O)N[C@@H](CCC(=O)O)C(=O)O)cc1` [[6R,S]-5-methyltetrahydrofolate], for which, in data set [4], the “serum folate concentrations compared to the folate group” value is around 3 fold.

As for `Nc1nc(=O)c2c([nH]1)NCC(CNc1ccc(C(=O)N[C@@H](CCC(=O)O)C(=O)O)cc1)=N2` [dihydrofolate], in the data set on diabetic Wistar rats [1], the “Organ weight, Adipose” value is reported as 5.43 ± 1.75*; the “Organ weight, Brain” value is 1.64 ± .09; the “Organ weight, Cecum matter” value was determined as 2.72 ± 0.51; the “Organ weight, Heart” value came out at 0.88 ± 0.07. In the data set on diabetic Wistar rats [1], the “Organ weight, Kidney” value was determined as 1.74 ± 0.21; the “Organ weight, Liver” value is 10.68 ± 1.46; the “Organ weight, Lungs” value amounted to 2.09 ± 0.18; the “Organ weight, Spleen” value was 1.09 ± 0.10. For the same compound, in the data set on diabetic Wistar rats [1], the “Organ weight, Testes” value is on record as 2.88 ± 0.27. Moreover, the “histology of islets of the pancreas / beta cells” value with diabetic Wistar rats [2] is recorded as “Severe hypertrophy of islets of the pancreas with hyperplasia of beta cells”. Also, in the data set on rat liver homogenate, the “glucose concentration upon treatment” value is reported as “decreased”. The “whole blood glucose values from baseline” value in the data set with diabetic Wistar rats [3] (OGTT) is “more gradual decline”. In addition, the glucose tolerance result in the data set with diabetic Wistar rats [3] (oral glucose 2 g/kg body wt) was “greater effect”.

As to `Nc1nc(=O)c2nc(CNc3ccc(C(=O)N[C@@H](CCC(=O)O)C(=O)O)cc3)cnc2[nH]1` [synthetic folate], in the data set on diabetic Wistar rats [1], the “Organ weight, Adipose” value was 0.87 ± 0.60****; the “Organ weight, Cecum matter” value is 6.46 ± 1.49; the “Organ weight, Heart” value is given as 0.68 ± 0.07; the “Organ weight, Kidney” value was 2.12 ± 0.46. Moreover, in the data set on diabetic Wistar rats [1], the “Organ weight, Liver” value amounted to 7.35 ± 1.02; the “Organ weight, Lungs” value came out at 1.46 ± 0.38; the “Organ weight, Spleen” value came to 0.66 ± 0.08; the “Organ weight, Testes” value is on record as 2.57 ± 0.95. The “histology of islets of the pancreas / beta cells” value in the data set on diabetic Wistar rats [2] is reported as “Moderate atrophy of islets of the pancreas with apoptosis of beta cells”. Further, in the data set with rat liver homogenate, the “glucose concentration upon treatment” value was “no effect”. Moreover, the “whole blood glucose values from baseline” value with diabetic Wistar rats [3] (OGTT) is reported as “did not show much declaim”.
